We go through twelve molecules from patent US8017792B2, “1-thio-D-glucitol derivatives” (Taisho Pharmaceutical Co., Ltd., priority 2005, dated 2011).

The melting point is the temperature, or range, at which the solid turns liquid. Usually IC50 stands for the concentration needed to halve the response being measured. A higher IC50 goes with lower potency.

Where a name gives a salt, the structure may show the parent alone.

The target in series [1] is T1, Human SGLT2 (Homo sapiens, UniProt P31639).
T1 construct: expressed in transfected cells; host or cells: CHO-K1
T1 sequence (P31639 1-672): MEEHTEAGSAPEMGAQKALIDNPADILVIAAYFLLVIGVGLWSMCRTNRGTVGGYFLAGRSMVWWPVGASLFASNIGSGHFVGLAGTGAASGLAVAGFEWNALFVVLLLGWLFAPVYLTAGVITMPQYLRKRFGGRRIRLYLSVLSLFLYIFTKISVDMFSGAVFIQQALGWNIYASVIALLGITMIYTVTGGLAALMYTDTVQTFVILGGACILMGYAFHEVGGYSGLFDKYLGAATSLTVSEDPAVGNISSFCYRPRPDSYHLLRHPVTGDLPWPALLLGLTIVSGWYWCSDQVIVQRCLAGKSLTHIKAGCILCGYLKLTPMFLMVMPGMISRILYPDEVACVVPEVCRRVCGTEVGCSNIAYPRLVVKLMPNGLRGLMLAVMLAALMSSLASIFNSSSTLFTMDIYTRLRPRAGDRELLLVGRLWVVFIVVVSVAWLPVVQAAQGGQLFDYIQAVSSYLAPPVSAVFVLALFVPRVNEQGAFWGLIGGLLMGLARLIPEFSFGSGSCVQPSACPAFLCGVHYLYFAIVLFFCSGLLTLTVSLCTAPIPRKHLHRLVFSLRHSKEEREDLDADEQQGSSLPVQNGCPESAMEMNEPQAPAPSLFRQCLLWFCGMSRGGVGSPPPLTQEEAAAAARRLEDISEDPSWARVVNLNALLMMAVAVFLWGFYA
As to the kind of experiment: Sodium-dependent sugar uptake inhibition test in CHO-K1 cells stably expressing human SGLT2 (Test Example 2). It is filed as cell-based. The following applies: for IC50: CHO-K1 cells, [14C]methyl-α-D-glucopyranoside 1 mM, 37° C., one hour; for SGLT1/SGLT2: ratio of IC50 human SGLT1 to IC50 human SGLT2. The method, then:
(§1) Human SGLT1 sequence (NM_000343) was reverse-transcripted from human small intestinal mRNA, then amplified, and then introduced into pCMV-tag5A from Stratagene Corporation. Human SGLT2 sequence (NM_003041) was prepared from human nephric mRNA as with the above method, and then introduced into pcDNA3.1+hygro from Invitrogen Corporation. Each cloned sequence was confirmed to be identical with the reported sequence.
(§2) CHO-K1 cells were transfected with the human SGLT1 and human SGLT2 expression vectors using Lipofectamine 2000 (Invitrogen Corporation). SGLT expression cells were cultured in the presence of geneticin (SGLT1) or hygromycin B (SGLT2) of the concentration of 500 μg/mL to select resistant strains. Cells were obtained using sugar uptake specific activity as an index in the following system.
(§3) Cells stably expressing human SGLT1 and human SGLT2 were used in the sodium-dependent sugar uptake activity inhibition test. Cells were incubated in 1 mL of a pretreatment buffer solution (140 mM choline chloride, 2 mM KCl, 1 mM CaCl2, 1 mM MgCl2, 10 mM HEPES/5 mM Tris, pH 7.4) for 20 minutes. The pretreatment buffer solution was removed and 200 μL of an uptake buffer containing test compounds (methyl-α-D-glucopyranoside containing [^14C]methyl-α-D-glucopyranoside (0.1 mM for SGLT1 inhibition, 1 mM for SGLT2 inhibition), 140 mM NaCl, 2 mM KCl, 1 mM CaCl2, 1 mM MgCl2, 10 mM HEPES/5 mM Tris, pH 7.4) were added, and uptake reaction was performed at 37° C. for 30 minutes (SGLT1) or for one hour (SGLT2). After the reaction, cells were washed with 1 mL of a washing buffer (10 mM methyl-α-D-glucopyranoside, 140 mM choline chloride, 2 mM KCl, 1 mM CaCl2, 1 mM MgCl2, 10 mM HEPES/5 mM Tris, pH 7.4) twice and dissolved in 400 μL of 0.2 M NaOH solution. After Aquazole 2 (Perkin Elmer Corporation) was added and mixed well, radioactivity was measured with a liquid scintillation counter (Beckman Coulter Corporation). A buffer for uptake which contained no test compound was prepared as a control group. Another buffer solution for uptake containing choline chloride in place of NaCl was also prepared for basic uptake.

For series [2], the target named is T2, Human SGLT1 (Homo sapiens, UniProt P13866).
T2 construct: expressed in transfected cells; host or cells: CHO-K1
T2 sequence (P13866 1-664): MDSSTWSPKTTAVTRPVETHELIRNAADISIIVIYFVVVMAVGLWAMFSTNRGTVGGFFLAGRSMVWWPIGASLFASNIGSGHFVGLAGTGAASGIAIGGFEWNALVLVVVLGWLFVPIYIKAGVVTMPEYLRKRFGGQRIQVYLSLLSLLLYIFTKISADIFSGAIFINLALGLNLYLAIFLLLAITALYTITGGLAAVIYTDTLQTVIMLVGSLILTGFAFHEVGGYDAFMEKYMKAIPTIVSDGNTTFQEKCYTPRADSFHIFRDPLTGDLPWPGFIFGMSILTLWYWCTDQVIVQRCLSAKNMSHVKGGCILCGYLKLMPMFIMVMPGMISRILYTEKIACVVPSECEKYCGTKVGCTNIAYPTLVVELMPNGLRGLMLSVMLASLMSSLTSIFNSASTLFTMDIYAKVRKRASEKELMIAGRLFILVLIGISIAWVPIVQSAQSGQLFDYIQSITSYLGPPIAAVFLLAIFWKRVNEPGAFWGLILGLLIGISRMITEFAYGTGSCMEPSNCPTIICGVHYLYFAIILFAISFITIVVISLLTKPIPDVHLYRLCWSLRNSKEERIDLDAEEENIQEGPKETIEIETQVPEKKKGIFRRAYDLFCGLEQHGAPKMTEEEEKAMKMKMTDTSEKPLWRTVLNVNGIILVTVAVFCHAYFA
The series is described as follows: Sodium-dependent sugar uptake inhibition test in CHO-K1 cells stably expressing human SGLT1 (Test Example 2). Type of series: cell-based. The following applies: [14C]methyl-α-D-glucopyranoside 0.1 mM, 37° C., 30 minutes. The method, then: as §1, §2, §3

Molecule `COc1ccc([C@@H]2S[C@H](COCc3ccccc3)[C@@H](OCc3ccccc3)[C@H](OCc3ccccc3)[C@H]2OCc2ccccc2)cc1Cc1cc2ccccc2s1` [Compound 56] had a melting point of 133 to 135 °C.

In turn, `Clc1ccc([C@@H]2S[C@H](COCc3ccccc3)[C@@H](OCc3ccccc3)[C@H](OCc3ccccc3)[C@H]2OCc2ccccc2)cc1Cc1cc2ccccc2s1` [Compound 57] returned a melting point of 140 to 143 °C.

On to `CCOc1ccc(Cc2cc([C@@H]3S[C@H](CO)[C@@H](O)[C@H](O)[C@H]3O)c(OC)cc2Cl)cc1` (as salt: Na) [Compound 99, (1S)-1,5-anhydro-1-[4-chloro-5-(4-ethoxybenzyl)-2-methoxyphenyl]-1-thio-D-glucitol], for which the melting point was 177 to 179 °C.

With `CCOc1ccc(Cc2cc([C@@H]3S[C@H](COCc4ccccc4)[C@@H](OCc4ccccc4)[C@H](OCc4ccccc4)[C@H]3OCc3ccccc3)ccc2Cl)cc1` [Compound 3], the melting point lay within 126 to 128 °C.

For the molecule `CCOc1ccc(Cc2cc([C@@H]3S[C@H](CO)[C@@H](O)[C@H](O)[C@H]3O)c(O)cc2C)cc1` [Compound 98, (1S)-1,5-Anhydro-1-[3-(4-ethoxybenzyl)-6-hydroxy-4-methylphenyl]-1-thio-D-glucitol], the results for the IC50 in series [1] and in series [2] were 15 nM and 100 nM, respectively. The SGLT1/SGLT2 in series [1] was 6.5.

`CCc1ccc(Cc2cc([C@@H]3S[C@H](CO)[C@@H](O)[C@H](O)[C@H]3O)c(OC)cc2Cl)cc1` [Compound 102, (1S)-1,5-Anhydro-1-[4-chloro-3-(4-ethylbenzyl)-6-methoxyphenyl]-1-thio-D-glucitol]: in series [1], 40 nM corresponded to half-maximal inhibition (IC50) and the SGLT1/SGLT2 amounted to 86.6. Further, the IC50 in series [2] was 3500 nM.

As for `COc1cc(C)c(Cc2ccc(C)cc2)cc1[C@@H]1S[C@H](CO)[C@@H](O)[C@H](O)[C@H]1O` [Compound 104, (1S)-1,5-Anhydro-1-[3-(4-methylbenzyl)-6-methoxy-4-methylphenyl]-1-thio-D-glucitol], in series [1], the IC50 came out at 34 nM and the SGLT1/SGLT2 is listed as 29.8. This molecule registered an IC50 in series [2] of 1000 nM.

Regarding `CCOc1ccc(Cc2cc([C@@H]3S[C@H](CO)[C@@H](O)[C@H](O)[C@H]3O)c(OC)cc2OC)cc1` [Compound 80, (1S)-1,5-Anhydro-1-[4,6-dimethoxy-3-(4-ethoxybenzyl)phenyl]-1-thio-D-glucitol], the IC50 in series [1] was 190 nM; in series [2], 2900 nM.

Consider `CCOc1ccc(Cc2cc([C@@H]3S[C@H](CO)[C@@H](O)[C@H](O)[C@H]3O)c(OC)cc2C)cc1` [Compound 89, (1S)-1,5-anhydro-1-[3-(4-ethoxybenzyl)-6-methoxy-4-methylphenyl]-1-thio-D-glucitol], for which, in series [1], half-maximal inhibition (IC50) required 65 nM and the SGLT1/SGLT2 is given as 97.5. Besides, the IC50 in series [2] came to 6300 nM.

Consider `CCOc1ccc(Cc2cc([C@@H]3S[C@H](CO)[C@@H](O)[C@H](O)[C@H]3O)ccc2OC)cc1` [Compound 77, (1S)-1,5-Anhydro-1-[3-(4-ethoxybenzyl)-4-methoxyphenyl]-1-thio-D-glucitol], for which, in series [1], the IC50 stood at 690 nM and the SGLT1/SGLT2 is 11.6. In addition, in series [2], inhibition was half-maximal at 8000 nM (IC50).

`COc1ccc(Cc2cc([C@@H]3S[C@H](CO)[C@@H](O)[C@H](O)[C@H]3O)ccc2Cl)cc1` [Compound 88, (1S)-1,5-Anhydro-1-[4-chloro-3-(4-methoxybenzyl)phenyl]-1-thio-D-glucitol]: the IC50 in series [1] was found to be 80 nM; in series [2], 200 nM. Moreover, in series [1], the SGLT1/SGLT2 came to 2.8.

With `OC[C@H]1S[C@@H](c2ccc(Cl)c(Cc3cc4ccccc4o3)c2)[C@H](O)[C@@H](O)[C@@H]1O` [Compound 132, (1S)-1,5-Anhydro-1-[3-[(1-benzofuran-2-yl)methyl]-4-chlorophenyl]-1-thio-D-glucitol], in series [1], the IC50 was 497 nM and the SGLT1/SGLT2 is 8.9. Also, in series [2], the midpoint of inhibition, the IC50, lay at 4400 nM.
